{"source": "patent US7078434B1", "about": "“Use of Ginkgo extract” (Societe de Conseils de Recherches et d'Applications …, priority 1999, dated 2006)", "key": {"[1]": {"test_system": "PBR mRNA", "test": "RNA (Northern) blot analysis of PBR mRNA in MDA-231 cells", "assay_type": "cell-based, human", "conditions": "48 hours, 20 or 200 μg/ml EGB 761® or 2 or 20 μg/ml GKB", "source_text": "(§1) Cell Culture and Treatments. […] Radioligand Binding Assays. […] RNA (Northern) Analysis. […] Nucleic Acid Arrays. […] BrdU Cell Proliferation Assays. […] Analysis of oxidative stress. […] Biological Evaluation In Vivo. […] Immunocytochemistry of MDA-231 tumors. […] Statistical Analysis. […] (FIG. 5)."}, "[2]": {"test_system": "MDA-231 cells", "test": "BrdU cell proliferation assay, MDA-231", "procedure": "4 h prior to the end of incubation, bromodeoxyuridine (BrdU) was added to each well. Incorporation of BrdU was measured at 450 nm (reference=700 nm). Data points represent the mean±S.D. of four independent experiments carried out in quadruplicate.\n4 h prior to the end of incubation, bromodeoxyuridine (BrdU) was added to each well. Incorporation of BrdU was measured at 450 nm (reference=700 nm). Data points represent the mean±S.D. of two independent experiments carried out in quadruplicate.\nMDA-231 cells grown in 96-well plates were washed with PBS and cultured in media supplemented with 10% FBS in the presence or absence of either 2 μg/ml or 20 μg/ml GKB for 48 hours. 4 h prior to the end of incubation, bromodeoxyuridine (BrdU) was added to each well. Incorporation of BrdU was measured at 450 nm (reference=700 nm). Data points represent the mean±S.D. of two independent experiments carried out in quadruplicate.\nCell lines were cultured on polystyrene culture dishes (Corning) and grown in Dulbecco's modified Eagle medium (DMEM) supplemented with 10% fetal bovine serum (FBS). […] BrdU Cell Proliferation Assays. MDA-231 cells were plated on 96-well plates (Corning, Corning, N.J.) at a concentration of approximately 10,000 cells/well (24 h incubation) or approximately 5,000 cells/well (48 h incubation) in DMEM supplemented with 0.1% FBS. […] Differences in cell proliferation were analyzed by measuring the amount of 5-bromo-2′deoxyuridine (BrdU) incorporation determined by the BrdU ELISA (Boehringer Mannheim, Indianapolis, Ind.). Incorporation of BrdU was measured at 450 nm (reference at 690 nm)."}, "[3]": {"test_system": "peripheral-type benzodiazepine receptor (PBR)", "test": "PBR ligand binding capacity of treated MDA-231 cells ([3H]PK 11195 saturation binding, Scatchard analysis)", "assay_type": "cell-based, human", "conditions": "% of control values", "source_text": "as §1"}, "[4]": {"test_system": "MDA-231 cell free radical production", "test": "Analysis of oxidative stress (2,7-DCF fluorescent probe) in MDA-231 cells", "assay_type": "cell-based, human", "source_text": "as §1"}, "[5]": {"test_system": "MDA-231 xenografts", "test": "MDA-231 human breast cancer xenograft model in nude mice", "procedure": "After the end of the treatment the animals were kept for 30 more days and then the animals were sacrificed on day 60. Data shown are means±S.E.M. (n=10).\nBiological Evaluation In Vivo. […] Twice weekly tumor sizes and body weights were recorded for all animals for the 30 days of treatment as well for 30 days after the end of the treatment. At that time the animals were sacrificed and the tumors were removed and processed for immunohistochemistry. Animal care was in accordance with institutional guidelines. […] Statistical Analysis."}, "[6]": {"test_system": "MCF-7 cells", "test": "BrdU cell proliferation assay, MCF-7", "assay_type": "cell-based, human", "conditions": "48 hours, 20 or 200 μg/ml EGB 761® or 2 or 20 μg/ml GKB; compared with MDA-231", "source_text": "as §1"}, "[7]": {"test_system": "MDA-231 cells", "test": "Additional cytotoxicity assays", "assay_type": "cell-based", "conditions": "human", "source_text": "It is of interest to note that even in the presence of high concentrations of either EGB 761® or GKB, PBR levels and rates of cell proliferation could not be reduced below 30% of normal values. […] It should be also noted that even at the highest concentrations used, neither EGB 761® nor GKB were toxic for the cells, because cell proliferation recovered upon removal of the compounds."}, "[8]": {"test_system": "PBR", "test": "Immunocytochemistry of MDA-231 tumors with anti-PBR antiserum", "assay_type": "in vivo, human", "conditions": "50 mg/kg EGB 761® per os or 1 mg/kg GKB ip", "description": "Formalin embedded sections of MDA-231 xenografts were immunostained with an anti-PBR antiserum at 1:500 dilution as described in the Materials and Methods section. MDA-231 tumors were obtained from animals treated with vehicle (A–D), 50 mg/kg EGB 761® per os (E, G), or 1 mg/kg GKB ip (F, H). […] Arrowheads indicate nuclei. Magnification is ×75 for A, B, C, E, F, G, and H and ×150 for […].\nas §1"}}, "note": "Entries after “also recorded” stand apart in the source; their conditions may differ.", "data": [{"smiles": "C[C@@H]1C(=O)O[C@H]2[C@H](O)C34[C@H]5C[C@@H](C(C)(C)C)C36C(O)C(=O)O[C@H]6O[C@@]4(C(=O)O5)[C@@]12O", "note": "(some centres unmarked) [GKB, ginkgolide B]", "values": [{"measurement": "PBR mRNA levels", "setting": "[1]", "value": "reduced"}, {"measurement": "MDA-231 cell proliferation (BrdU incorporation)", "setting": "[2]; 10% FBS, EGB 761® up to 96 h, GKB 2 or 20 μg/ml 48 hours", "value": "significantly altered; also recorded: inhibited"}, {"measurement": "toxicity for the cells (recovery of proliferation upon removal)", "setting": "[2]; highest concentrations used", "value": "cytostatic and not cytotoxic"}, {"measurement": "decrease of PBR levels (PBR ligand binding capacity, Bmax)", "setting": "[3]", "value": 66, "unit": "%"}, {"measurement": "effect on free radical / reactive oxygen species production", "setting": "[4]", "value": "absence of any significant decrease"}, {"measurement": "decrease in tumor size", "setting": "[5]; 1 mg/kg ip once a day for 30 days, measured a month after the end of the treatment, p=0.043", "value": 32, "unit": "%"}, {"measurement": "animal body weight", "setting": "[5]; 30 days treatment, 50 mg/kg EGB 761® or 1 mg/kg GKB, data not shown", "value": "did not affect"}, {"measurement": "MCF-7 cell proliferation (BrdU incorporation)", "setting": "[6]", "value": "altered to a lesser degree"}, {"measurement": "cell death", "setting": "[7]", "value": "neither EGB 761® nor GKB induced any significant cell death"}, {"measurement": "nuclear PBR expression in cells found in the middle of the tumor", "setting": "[8]", "value": "reduced"}, {"measurement": "nuclear PBR expression in the cells at the edge of the tumors", "setting": "[8]; cytosolic immunostaining could be seen", "value": "eliminated"}]}]}
